These results are taken from patent US8952034B2, “Fused heterocyclic compounds as ion channel modulators” (Gilead Sciences, Inc., priority 2009, dated 2015).

The target in the test is wild-type human cardiac sodium channel, hNav1.5 (Homo sapiens, UniProt Q14524). Description: Late INa screening assay (automated whole cell patch clamp, PatchXpress). The test is classed as cell-based. The settings on record: compound at 1 μM; HEK293 cells expressing hNav1.5; late INa generated with 10 μM Tefluthrin (or 50 nM ATX II); read-out: LateINa_1 uM (percent block of late INa). In short, it runs like this: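 Late sodium current through wild-type human hNav1.5 stably expressed in HEK293 cells (no beta subunits) was recorded by automated whole-cell patch clamp on a PatchXpress 7000A at 24-27° C. Late INa was induced with 10 μM Tefluthrin or 50 nM ATX II. Cells were stepped from −120 mV to −20 mV for 250 ms at 0.1 Hz, and percent block was normalized to current in Na-free extracellular solution.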
Sequence of wild-type human cardiac sodium channel, hNav1.5 (Q14524 whole entry): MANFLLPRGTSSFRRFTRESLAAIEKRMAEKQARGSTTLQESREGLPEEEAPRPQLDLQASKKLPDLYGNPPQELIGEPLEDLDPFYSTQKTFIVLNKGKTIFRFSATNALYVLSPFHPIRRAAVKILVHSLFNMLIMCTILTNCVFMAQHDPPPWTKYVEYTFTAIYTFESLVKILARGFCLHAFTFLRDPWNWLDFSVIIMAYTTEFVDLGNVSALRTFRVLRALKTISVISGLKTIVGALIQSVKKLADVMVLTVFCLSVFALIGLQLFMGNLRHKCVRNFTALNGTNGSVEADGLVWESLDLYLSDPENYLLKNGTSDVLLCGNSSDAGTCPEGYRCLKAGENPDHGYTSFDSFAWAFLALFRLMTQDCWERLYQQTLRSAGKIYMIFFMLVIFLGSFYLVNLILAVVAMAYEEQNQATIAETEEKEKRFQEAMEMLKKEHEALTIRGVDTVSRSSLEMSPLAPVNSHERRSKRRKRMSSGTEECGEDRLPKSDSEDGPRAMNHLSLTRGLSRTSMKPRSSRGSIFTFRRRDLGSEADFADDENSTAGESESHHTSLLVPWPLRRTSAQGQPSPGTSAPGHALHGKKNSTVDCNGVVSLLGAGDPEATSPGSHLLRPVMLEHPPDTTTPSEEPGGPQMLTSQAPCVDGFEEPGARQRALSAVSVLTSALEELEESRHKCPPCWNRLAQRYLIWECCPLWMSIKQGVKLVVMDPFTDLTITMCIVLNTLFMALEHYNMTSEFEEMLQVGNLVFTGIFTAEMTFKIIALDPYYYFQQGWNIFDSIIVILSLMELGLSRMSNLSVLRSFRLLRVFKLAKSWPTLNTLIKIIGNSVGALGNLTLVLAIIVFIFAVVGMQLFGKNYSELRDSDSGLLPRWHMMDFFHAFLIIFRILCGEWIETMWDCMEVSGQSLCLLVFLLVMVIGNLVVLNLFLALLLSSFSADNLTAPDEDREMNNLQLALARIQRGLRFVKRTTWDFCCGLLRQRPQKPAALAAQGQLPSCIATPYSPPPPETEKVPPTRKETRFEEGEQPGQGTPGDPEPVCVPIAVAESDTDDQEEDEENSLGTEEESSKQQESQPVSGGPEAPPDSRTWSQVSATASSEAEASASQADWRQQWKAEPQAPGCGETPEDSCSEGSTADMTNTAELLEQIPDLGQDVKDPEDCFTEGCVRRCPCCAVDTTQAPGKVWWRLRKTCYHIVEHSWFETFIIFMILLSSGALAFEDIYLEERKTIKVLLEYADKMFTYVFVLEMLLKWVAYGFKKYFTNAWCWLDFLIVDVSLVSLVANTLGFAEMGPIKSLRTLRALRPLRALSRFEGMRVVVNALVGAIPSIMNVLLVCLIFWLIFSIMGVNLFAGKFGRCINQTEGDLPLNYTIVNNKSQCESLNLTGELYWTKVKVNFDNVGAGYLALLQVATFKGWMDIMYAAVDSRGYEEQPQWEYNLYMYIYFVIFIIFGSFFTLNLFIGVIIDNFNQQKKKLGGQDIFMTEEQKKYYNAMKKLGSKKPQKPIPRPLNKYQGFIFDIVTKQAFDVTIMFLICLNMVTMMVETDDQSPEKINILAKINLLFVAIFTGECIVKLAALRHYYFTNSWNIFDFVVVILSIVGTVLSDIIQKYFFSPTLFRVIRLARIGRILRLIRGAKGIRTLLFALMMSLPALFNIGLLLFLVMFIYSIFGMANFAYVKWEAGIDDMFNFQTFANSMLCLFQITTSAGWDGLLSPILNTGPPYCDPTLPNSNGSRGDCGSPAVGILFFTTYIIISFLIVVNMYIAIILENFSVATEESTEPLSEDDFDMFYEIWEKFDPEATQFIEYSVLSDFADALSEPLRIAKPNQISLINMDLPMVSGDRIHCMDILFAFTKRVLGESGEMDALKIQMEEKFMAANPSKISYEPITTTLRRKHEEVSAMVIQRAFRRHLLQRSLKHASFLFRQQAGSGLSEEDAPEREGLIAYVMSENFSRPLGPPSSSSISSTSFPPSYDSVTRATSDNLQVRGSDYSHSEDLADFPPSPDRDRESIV
For orientation: Patch clamp records ionic current or voltage across a cell membrane.
As for `CC(C)(O)C(F)(F)c1nnc2ccc(-c3ccc(OC(F)(F)F)cc3)cn12` [BHN-176, 1,1-difluoro-2-methyl-1-{6-[4-(trifluoromethoxy)phenyl][1,2,4]triazolo[4,3-a]pyridin-3-yl}propan-2-ol], the inhibition at 1 µM is 15.2%. To `FC(F)(F)c1ccc(C#Cc2ccc3nnc(C(F)(F)F)n3c2)cc1` [BHN-177, 3-(trifluoromethyl)-6-{[4-(trifluoromethyl)phenyl]ethynyl}[1,2,4]triazolo[4,3-a]pyridine] belongs 23.6%.

Turning to `COCCOc1cc(OC(F)(F)F)ccc1-c1ccc2nnc(C(F)(F)F)n2c1` [BHN-178, 6-[2-(2-methoxyethoxy)-4-(trifluoromethoxy)phenyl]-3-(trifluoromethyl)[1,2,4]triazolo[4,3-a]pyridine], the inhibition at 1 µM was 28.5%. In the case of `FC(F)(F)COc1ccc(-c2ccc3cnc(C(F)(F)F)n3c2)cn1` [BHN-179, 6-[6-(2,2,2-trifluoroethoxy)pyridin-3-yl]-3-(trifluoromethyl)imidazo[1,5-a]pyridine], the inhibition at 1 µM came out at 49.7%. For the molecule `FC(F)(F)c1nnc2ccc(-c3ccc(OC4CC4)nc3)cn12` [BHN-180, 6-[6-(cyclopropyloxy)pyridin-3-yl]-3-(trifluoromethyl)[1,2,4]triazolo[4,3-a]pyridine], the inhibition at 1 µM came out at 21.1%. Then `N#CCOc1cc(OC(F)(F)F)ccc1-c1ccc2nnc(C(F)(F)F)n2c1` [BHN-181, {5-(trifluoromethoxy)-2-[3-(trifluoromethyl)[1,2,4]triazolo[4,3-a]pyridin-6-yl]phenoxy}acetonitrile], with 18.7%; and `Cc1noc(-c2cc(-c3ccc4nnc(C(F)(F)F)n4c3)ccc2OC(F)(F)F)n1` [BHN-182, 6-[3-(3-methyl-1,2,4-oxadiazol-5-yl)-4-(trifluoromethoxy)phenyl]-3-(trifluoromethyl)[1,2,4]triazolo[4,3-a]pyridine], with 18.9%. To `FC(F)(F)c1ncc2ccc(-c3ncco3)cn12` [BHN-183, 6-(1,3-oxazol-2-yl)-3-(trifluoromethyl)imidazo[1,5-a]pyridine] belongs 19.5%; to `O=C(NCC(F)(F)c1nnc2ccc(-c3ccc(OC(F)(F)F)cc3)cn12)c1ccccn1` [BHN-184, N-(2,2-difluoro-2-{6-[4-(trifluoromethoxy)phenyl][1,2,4]triazolo[4,3-a]pyridin-3-yl}ethyl)pyridine-2-carboxamide], 29.8%. Then `COc1nnc2ccc(-c3ccc(OC(F)(F)F)cc3)cn12` [BHN-185, 3-methoxy-6-[4-(trifluoromethoxy)phenyl][1,2,4]triazolo[4,3-a]pyridine], with 29.1%; and `FC(F)(F)COc1nnc2ccc(-c3ccc(OC(F)(F)F)cc3)cn12` [BHN-186, 3-(2,2,2-trifluoroethoxy)-6-[4-(trifluoromethoxy)phenyl][1,2,4]triazolo[4,3-a]pyridine], with 45.2%; and `FC(F)(F)COc1ccc(-c2ccc3nnc(C(F)(F)F)n3c2)nn1` [BHN-187, 6-[6-(2,2,2-trifluoroethoxy)pyridazin-3-yl]-3-(trifluoromethyl)[1,2,4]triazolo[4,3-a]pyridine], with 15.2%.

For the molecule `COCC(F)(F)c1nnc2ccc(-c3ccc(OC(F)(F)F)c(C)c3)cn12` [BHN-188, 3-(1,1-difluoro-2-methoxyethyl)-6-[3-methyl-4-(trifluoromethoxy)phenyl][1,2,4]triazolo[4,3-a]pyridine], the inhibition at 1 µM worked out at 41.3%. Then `FC(F)(F)Oc1ccc(-c2ccc3nnc(C(F)(F)F)n3c2)cc1C(F)(F)F` [BHN-189, 6-[4-(trifluoromethoxy)-3-(trifluoromethyl)phenyl]-3-(trifluoromethyl)[1,2,4]triazolo[4,3-a]pyridine], with 56.9%; and `Fc1ccc(COCC(F)(F)c2nnc3ccc(-c4ccc(OC(F)(F)F)cc4)cn23)cc1F` [BHN-190, 3-{2-[(3,4-difluorobenzyl)oxy]-1,1-difluoroethyl}-6-[4-(trifluoromethoxy)phenyl][1,2,4]triazolo[4,3-a]pyridine], with 24.3%; and `FC(F)(F)c1ncc2ccc(-c3nccs3)cn12` [BHN-191, 6-(1,3-thiazol-2-yl)-3-(trifluoromethyl)imidazo[1,5-a]pyridine], with 19.8%. Take `COCC(F)(F)c1nnc2ccc(C#Cc3ccccc3)cn12` [BHN-192, 3-(1,1-difluoro-2-methoxyethyl)-6-(phenylethynyl)[1,2,4]triazolo[4,3-a]pyridine]: the inhibition at 1 µM came out at 31%. Then `Cc1cc(COC(F)(F)c2nnc3ccc(-c4ccc(OC(F)(F)F)cc4)cn23)no1` [BHN-193, 3-{difluoro[(5-methyl-1,2-oxazol-3-yl)methoxy]methyl}-6-[4-(trifluoromethoxy)phenyl][1,2,4]triazolo[4,3-a]pyridine], with 54.7%; and `FC(F)(F)c1ncc2ccc(-c3ccccc3)cn12` [BHN-194, 6-phenyl-3-(trifluoromethyl)imidazo[1,5-a]pyridine], with 22.2%; and `N#CC1(c2ccc(-c3ccc4nnc(C(F)(F)F)n4c3)cc2)CC1` [BHN-195, 1-{4-[3-(trifluoromethyl)[1,2,4]triazolo[4,3-a]pyridin-6-yl]phenyl}cyclopropanecarbonitrile], with 47.3%. Then `FC(F)(F)c1ncc2ccc(-c3nc4ccccc4o3)cn12` [BHN-196, 2-[3-(trifluoromethyl)imidazo[1,5-a]pyridin-6-yl]-1,3-benzoxazole], with 26.8%; and `CCC(O)(CC)C(F)(F)c1nnc2ccc(-c3ccc(OC(F)(F)F)cc3)cn12` [BHN-197, 3-(difluoro{6-[4-(trifluoromethoxy)phenyl][1,2,4]triazolo[4,3-a]pyridin-3-yl}methyl)pentan-3-ol], with 25.4%. Regarding `OCC(F)(F)c1nnc2ccc(C#Cc3ccc(C(F)(F)F)cc3)cn12` [BHN-198, 2,2-difluoro-2-(6-{[4-(trifluoromethyl)phenyl]ethynyl}[1,2,4]triazolo[4,3-a]pyridin-3-yl)ethanol], the inhibition at 1 µM came out at 17.4%. To `FC(F)(F)c1ccc(-c2ccc3nnc(C(F)(F)F)n3c2)c(C(F)(F)F)c1` [BHN-199, 6-[2,4-bis(trifluoromethyl)phenyl]-3-(trifluoromethyl)[1,2,4]triazolo[4,3-a]pyridine] belongs 20.6%. Then `COCC(F)(F)c1nnc2ccc(-c3ccc(OC(F)(F)F)cc3C)cn12` [BHN-200, 3-(1,1-difluoro-2-methoxyethyl)-6-[2-methyl-4-(trifluoromethoxy)phenyl][1,2,4]triazolo[4,3-a]pyridine], with 40.8%; and `CC(C)c1nnc2ccc(-c3cc(F)c(Oc4ccccc4)c(F)c3)nn12` [BHN-201, 6-(3,5-difluoro-4-phenoxyphenyl)-3-(propan-2-yl)[1,2,4]triazolo[4,3-b]pyridazine], with 29.7%. Then `Cc1c(-c2ccc(OC(F)(F)F)cc2)ccc2nnc(C(F)(F)F)n12` [BHN-202, 5-methyl-6-[4-(trifluoromethoxy)phenyl]-3-(trifluoromethyl)[1,2,4]triazolo[4,3-a]pyridine], with 74.2%; and `CC(C)c1nnc2ccc(-c3ccc(OCC(F)(F)F)nc3)nn12` [BHN-203, 3-(propan-2-yl)-6-[6-(2,2,2-trifluoroethoxy)pyridin-3-yl][1,2,4]triazolo[4,3-b]pyridazine], with 19.3%; and `FC(F)(F)Oc1ccc(-c2ccc3nnc(C(F)(F)OCc4cccnc4)n3c2)cc1` [BHN-204, 3-[difluoro(pyridin-3-ylmethoxy)methyl]-6-[4-(trifluoromethoxy)phenyl][1,2,4]triazolo[4,3-a]pyridine], with 43.9%. Take `CC(C)(O)COCC(F)(F)c1nnc2ccc(-c3ccc(OC(F)(F)F)cc3)cn12` [BHN-205, 1-(2,2-difluoro-2-{6-[4-(trifluoromethoxy)phenyl][1,2,4]triazolo[4,3-a]pyridin-3-yl}ethoxy)-2-methylpropan-2-ol]: the inhibition at 1 µM is 25.2%.

In the case of `FC(F)(F)Oc1ccc(-c2ccc3nnc(C(F)(F)OCc4noc(C5CC5)n4)n3c2)cc1` [BHN-206, 3-{[(5-cyclopropyl-1,2,4-oxadiazol-3-yl)methoxy](difluoro)methyl}-6-[4-(trifluoromethoxy)phenyl][1,2,4]triazolo[4,3-a]pyridine], the inhibition at 1 µM was determined as 44.7%.

Regarding `CC(C)Cc1nc(COC(F)(F)c2nnc3ccc(-c4ccc(OC(F)(F)F)cc4)cn23)no1` [BHN-207, 3-(difluoro{[5-(2-methylpropyl)-1,2,4-oxadiazol-3-yl]methoxy}methyl)-6-[4-(trifluoromethoxy)phenyl][1,2,4]triazolo[4,3-a]pyridine], the inhibition at 1 µM worked out at 60.3%.

`CC(C)c1nc(COC(F)(F)c2nnc3ccc(-c4ccc(OC(F)(F)F)cc4)cn23)no1` [BHN-208, 3-(difluoro{[5-(propan-2-yl)-1,2,4-oxadiazol-3-yl]methoxy}methyl)-6-[4-(trifluoromethoxy)phenyl][1,2,4]triazolo[4,3-a]pyridine]: the inhibition at 1 µM came out at 70.5%. `Fc1cc(-c2ccc3nnc(C(F)(F)F)n3n2)ccc1OC(F)(F)F` [BHN-209, 6-[3-fluoro-4-(trifluoromethoxy)phenyl]-3-(trifluoromethyl)[1,2,4]triazolo[4,3-b]pyridazine]: the inhibition at 1 µM stood at 61%. With `Fc1cc(-c2ccc3nnc(C(F)(F)F)n3n2)cc(F)c1Oc1ccccc1` [BHN-210, 6-(3,5-difluoro-4-phenoxyphenyl)-3-(trifluoromethyl)[1,2,4]triazolo[4,3-b]pyridazine], the inhibition at 1 µM amounted to 33.8%. Then `FC(F)(F)Oc1ccc(-c2ccc3nnc(C(F)(F)OCc4ccccn4)n3c2)cc1` [BHN-211, 3-[difluoro(pyridin-2-ylmethoxy)methyl]-6-[4-(trifluoromethoxy)phenyl][1,2,4]triazolo[4,3-a]pyridine], with 57.4%.
